Source: paper PMC11790914, “Chemogenomics for steroid hormone receptors (NR3)” (Communications Chemistry, 2025)
“Also recorded” adds a separate entry of the source. Read-outs that look alike come from different tables or passages of the source.

Experiments:
[1] = cited from earlier work; for Reason for exclusion: number of annotated off-targets: other targets with annotated bioactivities at ≤10 µM in previously published dataset
NR3A1 (ERα) = conditions: cited from earlier work; for IC50: read-out: Potency [nM] IC50, NR3A1 (ERα)
[2] = test system: NF-κB activity in HEK293 NF-κB reporter cells; test: NF-kB activity assay (GFP reporter, ionomycin/PMA); format: cell-based; conditions: for Mean NFκB response: n=3
Summary of the method: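 HEK293 NF-κB GFP reporter cells given compound in 0.1% DMSO for 4 h, then stimulated with ionomycin 100 ng/mL plus PMA 10 ng/mL. Imaged every 90 min over 24 h; GFP-positive cell count normalized to confluence, three independent biological replicates.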

CC/C(=C(/c1ccc(/C=C/C(=O)O)cc1)c1ccc2[nH]ncc2c1)c1ccc(F)cc1Cl [ARN810]
NR off-target at recom. conc. ([1]; known NR off-target at the recommended concentration, ref Supplementary Table 1 (superscript references)): NR3C1; also recorded: NR3C2; also recorded: NR3C3; also recorded: NR3C4
Other off-target at recom. conc. ([1]; known off-target outside the NR family at the recommended concentration, ref Supplementary Table 1 (superscript references)): GABAA and DAT
Reason for exclusion: number of annotated off-targets [1]: > 5 off-targets
IC50 (NR3A1 (ERα); (lit.), ref Supplementary Table 1): 6 nM
rel. activity from literature, NR3A1 (ERα): % ERα remaining (NR3A1 (ERα); ERα remaining (degrader), ref Supplementary Table 1): 9%

C[C@@H]1Cc2c([nH]c3ccccc23)[C@@H](c2c(F)cc(/C=C/C(=O)O)cc2F)N1CC(C)(C)F [AZD9496]
Mean NFκB response ([2]; 1 µM, 1,5 h): 3183.32 GFP+-cells/confluence ∙ 1000
Mean NFκB response ([2]; 1 µM, 4,5 h): 3743.71 GFP+-cells/confluence ∙ 1000
Mean NFκB response ([2]; 1 µM, 7,5 h): 6968.05 GFP+-cells/confluence ∙ 1000
Mean NFκB response ([2]; 1 µM, 10,5 h): 12962.04 GFP+-cells/confluence ∙ 1000
Mean NFκB response ([2]; 1 µM, 13,5 h): 18218.90 GFP+-cells/confluence ∙ 1000
Mean NFκB response ([2]; 1 µM, 16,6 h): 22070.92 GFP+-cells/confluence ∙ 1000
Mean NFκB response ([2]; 1 µM, 19,5 h): 24828.05 GFP+-cells/confluence ∙ 1000
Mean NFκB response ([2]; 1 µM, 22,5 h): 27011.69 GFP+-cells/confluence ∙ 1000
Mean NFκB response ([2]; 1 µM, 3 h): 3319.11 GFP+-cells/confluence ∙ 1000
Mean NFκB response ([2]; 1 µM, 6 h): 4897.81 GFP+-cells/confluence ∙ 1000
Mean NFκB response ([2]; 1 µM, 9 h): 10141.67 GFP+-cells/confluence ∙ 1000
Mean NFκB response ([2]; 1 µM, 12 h): 15818.86 GFP+-cells/confluence ∙ 1000
Mean NFκB response ([2]; 1 µM, 15 h): 20214.01 GFP+-cells/confluence ∙ 1000
Mean NFκB response ([2]; 1 µM, 18 h): 23720.26 GFP+-cells/confluence ∙ 1000
Mean NFκB response ([2]; 1 µM, 21 h): 26076.44 GFP+-cells/confluence ∙ 1000
Mean NFκB response ([2]; 1 µM, 24 h): 27738.19 GFP+-cells/confluence ∙ 1000
NF-κB activity (inflammatory response to ionomycin/PMA) ([2]; HEK293 NF-κB reporter cells, compounds at recommended concentrations, imaged over 24 h, n = 3): reducing the inflammatory response
IC50 (NR3A1 (ERα)): 0.28 ± 0.04 nM

CCCC1O[C@@H]2C[C@H]3[C@@H]4CCC5=CC(=O)C=C[C@]5(C)[C@H]4[C@@H](O)C[C@]3(C)[C@]2(C(=O)CO)O1 (some centres unmarked) [Budesonide]
Reason for exclusion: number of annotated off-targets [1]: > 5 off-targets

CCN(CC)c1ccc(/C=N/NC(=O)c2ccc(O)cc2)cc1 [DY131]
Mean NFκB response ([2]; 3 µM, 1,5 h): 3734.45 GFP+-cells/confluence ∙ 1000
Mean NFκB response ([2]; 3 µM, 4,5 h): 4226.03 GFP+-cells/confluence ∙ 1000
Mean NFκB response ([2]; 3 µM, 7,5 h): 9363.33 GFP+-cells/confluence ∙ 1000
Mean NFκB response ([2]; 3 µM, 10,5 h): 20103.33 GFP+-cells/confluence ∙ 1000
Mean NFκB response ([2]; 3 µM, 13,5 h): 29726.67 GFP+-cells/confluence ∙ 1000
Mean NFκB response ([2]; 3 µM, 16,6 h): 36476.67 GFP+-cells/confluence ∙ 1000
Mean NFκB response ([2]; 3 µM, 19,5 h): 41143.33 GFP+-cells/confluence ∙ 1000
Mean NFκB response ([2]; 3 µM, 22,5 h): 44036.67 GFP+-cells/confluence ∙ 1000
Mean NFκB response ([2]; 3 µM, 3 h): 4084.29 GFP+-cells/confluence ∙ 1000
Mean NFκB response ([2]; 3 µM, 6 h): 5799.09 GFP+-cells/confluence ∙ 1000
Mean NFκB response ([2]; 3 µM, 9 h): 14733.33 GFP+-cells/confluence ∙ 1000
Mean NFκB response ([2]; 3 µM, 12 h): 25326.67 GFP+-cells/confluence ∙ 1000
Mean NFκB response ([2]; 3 µM, 15 h): 33133.33 GFP+-cells/confluence ∙ 1000
Mean NFκB response ([2]; 3 µM, 18 h): 38383.33 GFP+-cells/confluence ∙ 1000
Mean NFκB response ([2]; 3 µM, 21 h): 42820.00 GFP+-cells/confluence ∙ 1000
Mean NFκB response ([2]; 3 µM, 24 h): 45096.67 GFP+-cells/confluence ∙ 1000

CC/C(=C(/CC)c1ccc(O)cc1)c1ccc(O)cc1 [Diethylstilbestrol]
Mean NFκB response ([2]; 0.3 µM, 1,5 h): 2313.08 GFP+-cells/confluence ∙ 1000
Mean NFκB response ([2]; 0.3 µM, 4,5 h): 2949.70 GFP+-cells/confluence ∙ 1000
Mean NFκB response ([2]; 0.3 µM, 7,5 h): 7538.46 GFP+-cells/confluence ∙ 1000
Mean NFκB response ([2]; 0.3 µM, 10,5 h): 18701.55 GFP+-cells/confluence ∙ 1000
Mean NFκB response ([2]; 0.3 µM, 13,5 h): 27206.00 GFP+-cells/confluence ∙ 1000
Mean NFκB response ([2]; 0.3 µM, 16,6 h): 33288.00 GFP+-cells/confluence ∙ 1000
Mean NFκB response ([2]; 0.3 µM, 19,5 h): 37133.33 GFP+-cells/confluence ∙ 1000
Mean NFκB response ([2]; 0.3 µM, 22,5 h): 40576.67 GFP+-cells/confluence ∙ 1000
Mean NFκB response ([2]; 0.3 µM, 3 h): 2350.33 GFP+-cells/confluence ∙ 1000
Mean NFκB response ([2]; 0.3 µM, 6 h): 4223.97 GFP+-cells/confluence ∙ 1000
Mean NFκB response ([2]; 0.3 µM, 9 h): 13522.53 GFP+-cells/confluence ∙ 1000
Mean NFκB response ([2]; 0.3 µM, 12 h): 23340.33 GFP+-cells/confluence ∙ 1000
Mean NFκB response ([2]; 0.3 µM, 15 h): 30431.00 GFP+-cells/confluence ∙ 1000
Mean NFκB response ([2]; 0.3 µM, 18 h): 35400.00 GFP+-cells/confluence ∙ 1000
Mean NFκB response ([2]; 0.3 µM, 21 h): 39313.33 GFP+-cells/confluence ∙ 1000
Mean NFκB response ([2]; 0.3 µM, 24 h): 41536.67 GFP+-cells/confluence ∙ 1000
Mean NFκB response ([2]; 3 µM, 1,5 h): 2624.20 GFP+-cells/confluence ∙ 1000
Mean NFκB response ([2]; 3 µM, 4,5 h): 2942.05 GFP+-cells/confluence ∙ 1000
Mean NFκB response ([2]; 3 µM, 7,5 h): 5380.00 GFP+-cells/confluence ∙ 1000
Mean NFκB response ([2]; 3 µM, 10,5 h): 14690.00 GFP+-cells/confluence ∙ 1000
Mean NFκB response ([2]; 3 µM, 13,5 h): 22563.33 GFP+-cells/confluence ∙ 1000
Mean NFκB response ([2]; 3 µM, 16,6 h): 28276.67 GFP+-cells/confluence ∙ 1000
Mean NFκB response ([2]; 3 µM, 19,5 h): 33253.33 GFP+-cells/confluence ∙ 1000
Mean NFκB response ([2]; 3 µM, 22,5 h): 36776.67 GFP+-cells/confluence ∙ 1000
Mean NFκB response ([2]; 3 µM, 3 h): 2684.18 GFP+-cells/confluence ∙ 1000
Mean NFκB response ([2]; 3 µM, 6 h): 3410.00 GFP+-cells/confluence ∙ 1000
Mean NFκB response ([2]; 3 µM, 9 h): 9373.33 GFP+-cells/confluence ∙ 1000
Mean NFκB response ([2]; 3 µM, 12 h): 19050.00 GFP+-cells/confluence ∙ 1000
Mean NFκB response ([2]; 3 µM, 15 h): 25776.67 GFP+-cells/confluence ∙ 1000
Mean NFκB response ([2]; 3 µM, 18 h): 30966.67 GFP+-cells/confluence ∙ 1000
Mean NFκB response ([2]; 3 µM, 21 h): 34670.00 GFP+-cells/confluence ∙ 1000
Mean NFκB response ([2]; 3 µM, 24 h): 38090.00 GFP+-cells/confluence ∙ 1000

CC#C[C@]1(O)CC[C@H]2[C@@H]3CCC4=CC(=O)CCC4=C3[C@@H](c3ccc(N(C)C)cc3)C[C@@]21C [Mifepristone]
Mean NFκB response ([2]; 3 µM, 1,5 h): 3613.33 GFP+-cells/confluence ∙ 1000
Mean NFκB response ([2]; 3 µM, 4,5 h): 4100.00 GFP+-cells/confluence ∙ 1000
Mean NFκB response ([2]; 3 µM, 7,5 h): 7536.67 GFP+-cells/confluence ∙ 1000
Mean NFκB response ([2]; 3 µM, 10,5 h): 17493.33 GFP+-cells/confluence ∙ 1000
Mean NFκB response ([2]; 3 µM, 13,5 h): 25396.67 GFP+-cells/confluence ∙ 1000
Mean NFκB response ([2]; 3 µM, 16,6 h): 31560.00 GFP+-cells/confluence ∙ 1000
Mean NFκB response ([2]; 3 µM, 19,5 h): 36246.67 GFP+-cells/confluence ∙ 1000
Mean NFκB response ([2]; 3 µM, 22,5 h): 39496.67 GFP+-cells/confluence ∙ 1000
Mean NFκB response ([2]; 3 µM, 3 h): 3656.67 GFP+-cells/confluence ∙ 1000
Mean NFκB response ([2]; 3 µM, 6 h): 4860.00 GFP+-cells/confluence ∙ 1000
Mean NFκB response ([2]; 3 µM, 9 h): 12946.67 GFP+-cells/confluence ∙ 1000
Mean NFκB response ([2]; 3 µM, 12 h): 21246.67 GFP+-cells/confluence ∙ 1000
Mean NFκB response ([2]; 3 µM, 15 h): 28726.67 GFP+-cells/confluence ∙ 1000
Mean NFκB response ([2]; 3 µM, 18 h): 34060.00 GFP+-cells/confluence ∙ 1000
Mean NFκB response ([2]; 3 µM, 21 h): 38440.00 GFP+-cells/confluence ∙ 1000
Mean NFκB response ([2]; 3 µM, 24 h): 40840.00 GFP+-cells/confluence ∙ 1000

COc1cc(/C=C(\C#N)C(=O)Nc2nnc(C(F)(F)F)s2)ccc1OCc1ccc(C(F)(F)F)cc1C(F)(F)F [XCT790]
Mean NFκB response ([2]; 1 µM, 1,5 h): 3626.75 GFP+-cells/confluence ∙ 1000
Mean NFκB response ([2]; 1 µM, 4,5 h): 4074.08 GFP+-cells/confluence ∙ 1000
Mean NFκB response ([2]; 1 µM, 7,5 h): 7428.22 GFP+-cells/confluence ∙ 1000
Mean NFκB response ([2]; 1 µM, 10,5 h): 16505.45 GFP+-cells/confluence ∙ 1000
Mean NFκB response ([2]; 1 µM, 13,5 h): 23920.00 GFP+-cells/confluence ∙ 1000
Mean NFκB response ([2]; 1 µM, 16,6 h): 29753.33 GFP+-cells/confluence ∙ 1000
Mean NFκB response ([2]; 1 µM, 19,5 h): 33970.00 GFP+-cells/confluence ∙ 1000
Mean NFκB response ([2]; 1 µM, 22,5 h): 37876.67 GFP+-cells/confluence ∙ 1000
Mean NFκB response ([2]; 1 µM, 3 h): 3669.25 GFP+-cells/confluence ∙ 1000
Mean NFκB response ([2]; 1 µM, 6 h): 4944.18 GFP+-cells/confluence ∙ 1000
Mean NFκB response ([2]; 1 µM, 9 h): 11887.81 GFP+-cells/confluence ∙ 1000
Mean NFκB response ([2]; 1 µM, 12 h): 20416.67 GFP+-cells/confluence ∙ 1000
Mean NFκB response ([2]; 1 µM, 15 h): 27150.00 GFP+-cells/confluence ∙ 1000
Mean NFκB response ([2]; 1 µM, 18 h): 32423.33 GFP+-cells/confluence ∙ 1000
Mean NFκB response ([2]; 1 µM, 21 h): 35883.33 GFP+-cells/confluence ∙ 1000
Mean NFκB response ([2]; 1 µM, 24 h): 39596.67 GFP+-cells/confluence ∙ 1000
